Laboratory results published in patent US20250115864A1, “A FERMENTATION MEDIUM COMPRISING SULPHUR” (Evonik Operations GmbH, priority 2021, published 2025).

Key:
Format in all cases: cell-based
Clostridium ljungdahlii = test: Formation of acetic acid and ethanol from synthesis gas with Clostridium ljungdahlii and refeeding of cysteine
Protocol: For the biotransformation of hydrogen and carbon dioxide to acetic acid and ethanol the homoacetogenic bacterium Clostridium ljungdahlii was cultivated on synthesis gas with refeeding of cysteine. All cultivation steps were carried out under anaerobic conditions in pressure-resistant glass bottles that can be closed airtight with a butyl rubber stopper.
The chemolithoautotrophic cultivation was carried out in a 1 L pressure-resistant glass bottle at 37° C., 100 rpm and a ventilation rate of 3 L/h with a premixed gas with 67% H2, 33% CO2 in an open water bath shaker for 69 h till OD600nm>0.4. The gas was discharged into the medium through a sparger with a pore size of 10 μm, which was mounted in the center of the reactors. Then the cell suspension was centrifuged and the cell pellet was resuspended in fresh CGF1 Medium.
For the production phase, as many washed cells from the preculture of C. ljungdahlii as necessary for an OD600nm of 0.2 were added to 100 ml mineral medium (CGF1 medium, pH 6.5, 1.4 g/L KOH, 2 g/L (NH4)2SO4, 1 g/L KH2PO4, 1 g/L K2HPO4, 10 mg/L FeSO4×7H2O, 3.8 mg/L MnSO4×1H2O, 246 mg/L MgSO4×7H2O, aerated for 30 min with a premixed gas with 67% H2 and 33% CO2). […] The cultivation was carried out in 500 mL pressure-resistant glass bottles at 37° C., 150 rpm in an open water bath shaker for 163 h which were aerated to an overpressure of 0.8 bar with a premixed gas with 67% H2, 33% CO2 one time a day. The pH was hold >5.0 by intermittent additions of a 140 g/L KOH solution. During the cultivation several 5 mL samples were taken to determinate OD600nm, pH und product formation. […] The determination of the product concentrations was performed by semiquantitative 1H-NMR spectroscopy. As an internal quantification standard sodium trimethylsilylpropionate (T (M) SP) was used.

[1] = tested on: Clostridium autoethanogenum together with Clostridium kluyveri in a co-culture; test: Continuous co-culture of Clostridium autoethanogenum and Clostridium kluyveri with low potassium thioacetate concentration
Protocol: (§1) The homoacetogenic bacterium Clostridium autoethanogenum was cultivated together with the chain elongating bacterium Clostridium kluyveri in a co-culture on synthesis gas in a mineral medium with potassium thioacetate as reduced sulfur source. The cultivation was carried out under anaerobic conditions in a pressure-resistant stainless steel bubble column loop reactor.
(§2) The cultivation was run at 37° C. and an overpressure of 2 bar as a continuous fermentation with continuous feeding of 300 L/h of a mixture of water, substrates, salts, trace elements and vitamins. The pH was automatically hold at 5.80 with ammonia feeding. The outlet stream of 300 L/h out of the fermenter was for 98.2% as permeate with cell retention and for 1.8% as purge without cell retention.
(§3) The culture was previously inoculated with cells from fresh cultures of C. autoethanogenum and C. kluyveri and was already running since >10.000 h full continuously as stable coculture at an optical density (OD600nm) of ˜ 9.0. Fresh medium was continuously fed into the reactor and fermentation broth continuously removed from the reactor with a dilution rate of 2.8 d^−1. During cultivation several 5 mL samples were taken to determinate OD600nm, PH und product formation. The determination of the product concentrations was performed by semiquantitative 1H-NMR spectroscopy. As an internal quantification standard sodium trimethylsilylpropionate (T (M) SP) was used.

[2] = tested on: Clostridium autoethanogenum together with Clostridium kluyveri in a co-culture; test: Continuous co-culture of Clostridium autoethanogenum and Clostridium kluyveri with high potassium thioacetate concentration
Protocol: as §1, §2
as §3, with “>13.000” for “>10.000”, “11.8.” for “9.0.”

[3] = culture C (refed with L-cysteine-hydrochloride) versus cultures A and B, production phase
[4] = 10.69 mg/L potassium thioacetate in media feed (before decrease)
[5] = 50 h after decreasing potassium thioacetate in media feed to 10% (1.69 mg/L)
[6] = 10.69 mg/L potassium thioacetate in media feed (before increase)
[7] = 50 h, 100 h and 150 h after increasing potassium thioacetate in media feed to 300% (32.07 mg/L)

SMILES: Cl.N[C@@H](CS)C(=O)O [L-cysteine, L-cysteine-hydrochloride]
- OD(600 nm) (Clostridium ljungdahlii; culture A, initial 400 mg/L L-cysteine-hydrochloride, no refeed, 0 h): 0.206
- OD(600 nm) (Clostridium ljungdahlii; culture A, initial 400 mg/L L-cysteine-hydrochloride, no refeed, 18.75 h): 0.232
- OD(600 nm) (Clostridium ljungdahlii; culture A, initial 400 mg/L L-cysteine-hydrochloride, no refeed, 41.5 h): 0.293
- OD(600 nm) (Clostridium ljungdahlii; culture A, initial 400 mg/L L-cysteine-hydrochloride, no refeed, 46.75 h): 0.281
- OD(600 nm) (Clostridium ljungdahlii; culture A, initial 400 mg/L L-cysteine-hydrochloride, no refeed, 65.5 h): 0.324
- OD(600 nm) (Clostridium ljungdahlii; culture A, initial 400 mg/L L-cysteine-hydrochloride, no refeed, 69.5 h): 0.366
- OD(600 nm) (Clostridium ljungdahlii; culture A, initial 400 mg/L L-cysteine-hydrochloride, no refeed, 89.75 h): 0.324
- OD(600 nm) (Clostridium ljungdahlii; culture A, initial 400 mg/L L-cysteine-hydrochloride, no refeed, 163.5 h): 0.339
- OD(600 nm) (Clostridium ljungdahlii; culture B, initial 200 mg/L L-cysteine-hydrochloride, no refeed, 0 h): 0.197
- OD(600 nm) (Clostridium ljungdahlii; culture B, initial 200 mg/L L-cysteine-hydrochloride, no refeed, 18.75 h): 0.261
- OD(600 nm) (Clostridium ljungdahlii; culture B, initial 200 mg/L L-cysteine-hydrochloride, no refeed, 41.5 h): 0.279
- OD(600 nm) (Clostridium ljungdahlii; culture B, initial 200 mg/L L-cysteine-hydrochloride, no refeed, 46.75 h): 0.269
- OD(600 nm) (Clostridium ljungdahlii; culture B, initial 200 mg/L L-cysteine-hydrochloride, no refeed, 65.5 h): 0.271
- OD(600 nm) (Clostridium ljungdahlii; culture B, initial 200 mg/L L-cysteine-hydrochloride, no refeed, 69.5 h): 0.259
- OD(600 nm) (Clostridium ljungdahlii; culture B, initial 200 mg/L L-cysteine-hydrochloride, no refeed, 89.75 h): 0.241
- OD(600 nm) (Clostridium ljungdahlii; culture B, initial 200 mg/L L-cysteine-hydrochloride, no refeed, 163.5 h): 0.237
- cell growth (Clostridium ljungdahlii; [3]): stronger cell growth than cultures A and B
- concentrations of acetate and ethanol (Clostridium ljungdahlii; [3]): increased more than in culture A and B
- OD(600 nm) (Clostridium ljungdahlii; culture C, initial 200 mg/L L-cysteine-hydrochloride, refed 200 mg/L after 18, 41, 65, 89 h, 0 h): 0.209
- OD(600 nm) (Clostridium ljungdahlii; culture C, initial 200 mg/L L-cysteine-hydrochloride, refed 200 mg/L after 18, 41, 65, 89 h, 18.75 h): 0.245
- OD(600 nm) (Clostridium ljungdahlii; culture C, initial 200 mg/L L-cysteine-hydrochloride, refed 200 mg/L after 18, 41, 65, 89 h, 41.5 h): 0.339
- OD(600 nm) (Clostridium ljungdahlii; culture C, initial 200 mg/L L-cysteine-hydrochloride, refed 200 mg/L after 18, 41, 65, 89 h, 46.75 h): 0.335
- OD(600 nm) (Clostridium ljungdahlii; culture C, initial 200 mg/L L-cysteine-hydrochloride, refed 200 mg/L after 18, 41, 65, 89 h, 65.5 h): 0.399
- OD(600 nm) (Clostridium ljungdahlii; culture C, initial 200 mg/L L-cysteine-hydrochloride, refed 200 mg/L after 18, 41, 65, 89 h, 69.5 h): 0.392
- OD(600 nm) (Clostridium ljungdahlii; culture C, initial 200 mg/L L-cysteine-hydrochloride, refed 200 mg/L after 18, 41, 65, 89 h, 89.75 h): 0.431
- OD(600 nm) (Clostridium ljungdahlii; culture C, initial 200 mg/L L-cysteine-hydrochloride, refed 200 mg/L after 18, 41, 65, 89 h, 95.5 h): 0.434
- OD(600 nm) (Clostridium ljungdahlii; culture C, initial 200 mg/L L-cysteine-hydrochloride, refed 200 mg/L after 18, 41, 65, 89 h, 163.5 h): 0.481

SMILES: CC(=O)[S-].[K+] [potassium thioacetate]
- CO2 turnover [1, 4]: 70%
- OD(600 nm) [1, 4]: 9.0
- steady state concentration acetate [1, 4]: ~0.90 g/L
- steady state concentration butyrate [1, 4]: ~0.91 g/L
- steady state concentration ethanol [1, 4]: about 3.27 g/L
- steady state concentration hexanoate [1, 4]: ~3.61 g/L
- CO2 turnover [1, 5]: 50%
- OD(600 nm) [1, 5]: 7.60
- ethanol concentration [1, 5]: 4.37 g/L
- steady state concentration acetate [1, 5]: 0.50 g/L
- steady state concentration butyrate [1, 5]: 0.53 g/L
- steady state concentration hexanoate [1, 5]: 2.41 g/L
- steady state concentration acetate [2, 6]: ~1.10 g/L
- steady state concentration butyrate [2, 6]: ~1.08 g/L
- steady state concentration ethanol [2, 6]: about 2.67 g/L
- steady state concentration hexanoate [2, 6]: ~3.75 g/L
- optical density (OD600nm) ([2]; 10.69 mg/L potassium thioacetate in media feed (before increase), stable coculture): ~11.8
- CO2 turnover [2, 7]: 70%
- OD(600 nm) [2, 7]: 11.80
- steady state concentrations of the educts and products [2, 7]: stayed on the same level
